From patent publication US12331068B2, “Compositions and methods for inhibiting CD73” (Peloton Therapeutics, Inc., priority 2018, dated 2025) come the findings set out here.

SMILES strings stand for the structures. Where two headings read alike, the source gives them in different places. A value given as a limit tells only on which side of the number the result lay.

Experiment [1] addresses T1, CD73 on U138 human neuroglioma cells (Homo sapiens, UniProt P21589).
T1 construct: U138 cells were obtained from ATCC and cultured in DMEM with 10% FBS; host or cells: U138 human neuroglioma cells
T1 sequence (P21589 27-549): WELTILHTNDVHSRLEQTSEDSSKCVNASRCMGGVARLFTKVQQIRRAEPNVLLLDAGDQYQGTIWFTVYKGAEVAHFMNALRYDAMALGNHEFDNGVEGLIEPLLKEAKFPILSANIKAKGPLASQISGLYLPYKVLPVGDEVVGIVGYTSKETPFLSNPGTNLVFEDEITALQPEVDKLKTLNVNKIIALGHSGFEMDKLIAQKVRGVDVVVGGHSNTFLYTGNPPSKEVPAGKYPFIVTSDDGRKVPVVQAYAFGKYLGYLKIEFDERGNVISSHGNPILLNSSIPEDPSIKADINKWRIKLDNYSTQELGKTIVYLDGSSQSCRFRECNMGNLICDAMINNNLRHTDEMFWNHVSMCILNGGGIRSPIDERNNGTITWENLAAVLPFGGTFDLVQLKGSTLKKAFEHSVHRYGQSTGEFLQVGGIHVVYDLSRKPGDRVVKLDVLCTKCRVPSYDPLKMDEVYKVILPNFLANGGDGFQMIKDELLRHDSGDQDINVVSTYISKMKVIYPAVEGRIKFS
Put plainly: CD73 Cell-Based Assay (inorganic phosphate from AMP, malachite green). Conditions: AMP substrate, 2 hours at 37° C., read-out: CD73 Cell-Based assay IC50. The procedure:
U138 human neuroglioma cells were used in these experiments. U138 cells were obtained from ATCC and cultured in DMEM with 10% FBS. 2500 cells were seeded into 96-well plate with 100 μL of media the day before the experiment. […] After washing, 100 μL of buffer was added to each well, then 100 μL of a mixture of AMP substrate (200 μM) and diluted compound was added to each well. The cells were incubated at 37° C. (with 5% CO2) for 2 hours. 50 μL of supernatant was transferred to a 96-well assay plate and the concentration of inorganic phosphate was determined using malachite green reagent (R&D System; Cat: DY996).

The target of experiment [2] is T2, Human CD73 (Homo sapiens, UniProt P21589).
T2 construct: purchased R&D Systems; host or cells: CHO cells
T2 sequence (P21589 27-549): T1 sequence (P21589 27-549)
The experiment in a line: CD73 Enzyme Assay (EnzChek PNP/MESG kinetic readout of AMP hydrolysis). The class given is biochemical. The procedure: A compound of the present disclosure (5 μL) was transferred to a 384-well assay plate. The compound was added in a 15 point, 3-fold serial dilution (300 μM to 0.0002 μM) in DMSO. […] The plate was immediately placed in a plate reader (Synergy 2 or Spark 10), and a reading was taken every minute for 10 to 20 minutes in a kinetic run at 360 nm. The linear portion of the curve was used to determine the observed rate (initial velocity). Low signal controls containing 100 μM adenosine 5′-(α,β-methylene) diphosphate and high signal controls containing no compound were measured for each plate.
IC50 values were calculated using Dotmatics template equation for 4-parameter fit. Results are expressed as % inhibition using the following equation: […]

Setting [3] is: 0.25 nM hCD73, 25 μM AMP, read-out: CD73 Enzyme Assay IC50.

For `C[C@@H](Nc1c(C#N)c(Cl)nc2c1ccn2[C@@H]1O[C@H](COP(=O)(O)CP(=O)(O)O)[C@@H](O)[C@H]1O)c1ccc(C#N)cc1` [Compound 213], the IC50 in experiment [1] and in experiment [2] (setting [3]) was < 0.01 µM each time.
With `N#Cc1c(Cl)nc2c(ccn2[C@@H]2O[C@H](CS(=O)(=O)CP(=O)(O)O)[C@@H](O)[C@H]2O)c1N[C@H]1C[C@@H](F)C1` [Compound 149], the IC50 in experiment [1] and in experiment [2] (setting [3]) was < 0.01 µM throughout.
As to `C[C@@H](Nc1c(C#N)c(Cl)nc2c1cnn2[C@@H]1O[C@H](CS(=O)(=O)CP(=O)(O)O)[C@@H](O)[C@H]1O)c1ccc(C#N)cc1` [Compound 192], the IC50 in experiment [1] and in experiment [2] (setting [3]) was 0.01 to 0.1 µM in each case.
For `N#Cc1c(Cl)nc2c(ccn2[C@@H]2O[C@H](CS(=O)(=O)CP(=O)(O)O)[C@@H](O)[C@@H]2F)c1NC1CCCC1` [Compound 170], the IC50 in experiment [1] and in experiment [2] (setting [3]) was < 0.01 µM each time.
Take `C[C@H](Nc1c(C#N)c(Cl)nc2c1ncn2[C@@H]1O[C@H](COP(=O)(O)CP(=O)(O)O)[C@@H](O)[C@H]1O)c1ccc(F)cc1` [Compound 215, (((((2R,3S,4R,5R)-5-(5-chloro-6-cyano-7-(((S)-1-(4-fluorophenyl)ethyl)amino)-3H-imidazo[4,5-b]pyridin-3-yl)-3,4-dihydroxytetrahydrofuran-2-yl)methoxy)(hydroxy)phosphoryl)methyl)phosphonic acid]: the IC50 in experiment [1] and in experiment [2] was < 0.01 µM each time.
Consider `C[C@H](Nc1c(C#N)c(Cl)nc2c1ccn2[C@@H]1O[C@H](COP(=O)(O)CP(=O)(O)O)[C@@H](O)[C@@H]1F)c1ccc(C#N)cc1` [Compound 230], for which the IC50 in experiment [1] and in experiment [2] (setting [3]) was < 0.01 µM in each case.
Take `N#Cc1c(Cl)nc2c(c(F)cn2[C@@H]2O[C@H](COCP(=O)(O)O)[C@@H](O)[C@H]2O)c1NC1CC(F)(F)C1` [Compound 160]: the IC50 in experiment [1] and in experiment [2] (setting [3]) was < 0.01 µM each time.
With `N#Cc1c(Cl)nc2c(ccn2[C@@H]2O[C@H](COP(=O)(O)CP(=O)(O)O)[C@@H](O)[C@H]2O)c1N1CCC(F)(F)C1` [Compound 37], the IC50 in experiment [1] and in experiment [2] (setting [3]) was < 0.01 µM in each case.
With `N#Cc1c(Cl)nc2c(ccn2[C@@H]2O[C@H](CS(=O)(=O)CP(=O)(O)O)[C@@H](O)[C@H]2O)c1NC1CCC1` [Compound 19], the IC50 in experiment [1] and in experiment [2] (setting [3]) was < 0.01 µM in each case.
Turning to `C[C@@H](Nc1c(C#N)c(Cl)nc2c1ncn2[C@@H]1O[C@H](COP(=O)(O)CP(=O)(O)O)[C@@H](O)[C@H]1O)c1ccc(F)cc1` [Compound 214], the IC50 in experiment [1] and in experiment [2] was < 0.01 µM in each case.
`N#Cc1c(Cl)nc2c(ncn2[C@@H]2O[C@H](COCP(=O)(O)O)[C@@H](O)[C@H]2O)c1N1C[C@@H](F)[C@H](F)C1` [Compound 93]: the IC50 in experiment [1] and in experiment [2] (setting [3]) was < 0.01 µM throughout.
As to `N#Cc1c(Cl)nc2c(ccn2[C@@H]2O[C@H](CS(=O)(=O)CP(=O)(O)O)[C@@H](O)[C@H]2O)c1N1CC2CCCC2C1` (stereo partly drawn) [Compound 21], the IC50 in experiment [1] and in experiment [2] (setting [3]) was < 0.01 µM each time.
For the molecule `N#Cc1c(Cl)nc2c(ccn2[C@@H]2O[C@H](COP(=O)(O)CP(=O)(O)O)[C@@H](O)[C@H]2O)c1NC1CC2CC2C1` (stereo partly drawn) [Compound 28], the IC50 in experiment [1] and in experiment [2] (setting [3]) was < 0.01 µM throughout.
`N#Cc1c(Cl)nc2c(cnn2[C@@H]2O[C@H](COP(=O)(O)CP(=O)(O)O)[C@@H](O)[C@H]2O)c1N[C@H]1C[C@@H](F)C1` [Compound 321]: the IC50 in experiment [1] and in experiment [2] (setting [3]) was < 0.01 µM each time.
Regarding `CC(C)Nc1c(C#N)c(Cl)nc2c1ccn2[C@@H]1O[C@H](COP(=O)(O)CP(=O)(O)O)[C@@H](O)[C@H]1O` [Compound 207], the IC50 in experiment [1] and in experiment [2] (setting [3]) was < 0.01 µM each time.
Consider `N#Cc1c(Cl)nc2c(cnn2[C@@H]2O[C@H](COCP(=O)(O)O)[C@@H](O)[C@H]2O)c1N1CC2CCCC2C1` (stereo partly drawn) [Compound 61], for which the IC50 in experiment [1] and in experiment [2] (setting [3]) was < 0.01 µM in each case.
Consider `N#Cc1c(Cl)nc2c(ccn2[C@@H]2O[C@H](CS(=O)(=O)CP(=O)(O)O)[C@@H](O)[C@H]2O)c1N[C@H]1CCC(F)(F)C1` [Compound 5], for which the IC50 in experiment [1] and in experiment [2] (setting [3]) was < 0.01 µM in each case.
For `C[C@H](Nc1c(C#N)c(Cl)nc2c1ccn2[C@@H]1O[C@H](COCP(=O)(O)O)[C@@H](O)[C@H]1O)c1ccc(F)cc1` [Compound 8], the IC50 in experiment [1] and in experiment [2] (setting [3]) was < 0.01 µM throughout.
On to `N#Cc1c(Cl)nc2c(ccn2[C@@H]2O[C@H](COCP(=O)(O)O)[C@@H](O)[C@H]2O)c1NC1CC2CC2C1` (stereo partly drawn) [Compound 26], for which the 50% inhibitory concentration (IC50) in experiment [1] and in experiment [2] (setting [3]) was < 0.01 µM throughout.
Take `N#Cc1c(Cl)nc2c(ccn2[C@@H]2O[C@H](COC(CO)P(=O)(O)O)[C@@H](O)[C@H]2O)c1N1CC2CCCC2C1` (stereo partly drawn) [Compound 51]: the IC50 in experiment [1] and in experiment [2] (setting [3]) was < 0.01 µM in each case.
Consider `N#Cc1c(Cl)nc2c(ccn2[C@@H]2O[C@H](COCP(=O)(O)O)[C@@H](O)[C@H]2O)c1N1C[C@@H](F)[C@@H](F)C1` [Compound 67, ((((2R,3S,4R,5R)-5-(6-chloro-5-cyano-4-((3S,4R)-3,4-difluoropyrrolidin-1-yl)-1H-pyrrolo[2,3-b]pyridin-1-yl)-3,4-dihydroxytetrahydrofuran-2-yl)methoxy)methyl)phosphonic acid], for which the IC50 in experiment [1] and in experiment [2] (setting [3]) was < 0.01 µM in each case.
Consider `N#Cc1c(Cl)nc2c(ncn2[C@@H]2O[C@H](COCP(=O)(O)O)[C@@H](O)[C@H]2O)c1N1CC(F)(F)C1` [Compound 82], for which the IC50 in experiment [1] and in experiment [2] (setting [3]) was < 0.01 µM each time.
Take `N#Cc1c(Cl)nc2c(ncn2[C@@H]2O[C@H](CS(=O)(=O)CP(=O)(O)O)[C@@H](O)[C@H]2O)c1NC1CC2CC2C1` (stereo partly drawn) [Compound 127]: the IC50 in experiment [1] and in experiment [2] (setting [3]) was < 0.01 µM throughout.
As for `Cc1nc2c(ccn2[C@@H]2O[C@H](COP(=O)(O)CP(=O)(O)O)[C@@H](O)[C@H]2O)c(NC2CCCC2)c1C#N` [Compound 49], the 50% inhibitory concentration (IC50) in experiment [1] and in experiment [2] (setting [3]) was < 0.01 µM throughout.
As to `N#Cc1c(Cl)nc2c(ccn2[C@@H]2O[C@H](CS(=O)(=O)CP(=O)(O)O)[C@@H](O)[C@H]2O)c1NC1CC2(CC2)C1` [Compound 159], the IC50 in experiment [1] and in experiment [2] (setting [3]) was < 0.01 µM each time.
Take `C[C@@H](Nc1c(C#N)c(Cl)nc2c1ccn2[C@@H]1O[C@H](CS(=O)(=O)CP(=O)(O)O)[C@@H](O)[C@H]1O)c1cccc(C#N)c1` [Compound 179]: the IC50 in experiment [1] and in experiment [2] (setting [3]) was < 0.01 µM throughout.
`C[C@H](Nc1c(C#N)c(Cl)nc2c1ccn2[C@@H]1O[C@H](COP(=O)(O)CP(=O)(O)O)[C@@H](O)[C@H]1O)c1ccc(F)cc1` [Compound 35]: the IC50 in experiment [1] and in experiment [2] (setting [3]) was < 0.01 µM each time.
On to `C[C@@H](Nc1c(C#N)c(Cl)nc2c1ccn2[C@@H]1O[C@H](COCP(=O)(O)O)[C@@H](O)[C@H]1O)c1ccc(F)cc1` [Compound 7], for which the IC50 in experiment [1] and in experiment [2] (setting [3]) was < 0.01 µM throughout.
Consider `N#Cc1c(Cl)nc2c(ccn2[C@@H]2O[C@H](COCP(=O)(O)O)[C@@H](O)[C@H]2O)c1N1CC[C@@H](F)C1` [Compound 66], for which the IC50 in experiment [1] and in experiment [2] (setting [3]) was < 0.01 µM throughout.
As for `N#Cc1c(Cl)nc2c(ccn2[C@@H]2O[C@H](COP(=O)(O)CP(=O)(O)O)[C@@H](O)[C@@H]2F)c1NC1CCCC1` [Compound 216], the IC50 in experiment [1] and in experiment [2] (setting [3]) was < 0.01 µM throughout.
`C[C@H](Nc1c(C#N)c(Cl)nc2c1ccn2[C@@H]1O[C@H](COP(=O)(O)CP(=O)(O)O)[C@@H](O)[C@H]1O)c1ccc(F)cn1` [Compound 212]: the IC50 in experiment [1] and in experiment [2] (setting [3]) was < 0.01 µM throughout.
Take `C[C@H](Nc1c(C#N)c(Cl)nc2c1ccn2[C@@H]1O[C@H](CS(=O)(=O)CP(=O)(O)O)[C@@H](O)[C@H]1O)c1ccc(C#N)cc1` [Compound 198]: the IC50 in experiment [1] and in experiment [2] (setting [3]) was < 0.01 µM in each case.
As for `N#Cc1c(Cl)nc2c(cnn2[C@@H]2O[C@H](COP(=O)(O)CP(=O)(O)O)[C@@H](O)[C@H]2O)c1NC1CCCC1` [Compound 244], the IC50 in experiment [1] and in experiment [2] (setting [3]) was < 0.01 µM throughout.

What is called IC50 is the concentration needed to halve the response being measured.
